Assay results taken from paper PMC4728427, “Mechanism of allosteric activation of TMEM16A/ANO1 channels by a commonly used chloride channel blocker” (British Journal of Pharmacology, 2016).

Assays:
Mouse TMEM16A = biological target: T1, Mouse TMEM16A (Mus musculus, UniProt Q8BHY3); assay: Non-stationary noise analysis of whole-cell TMEM16A tail currents; type: cell-based; settings: −70 mV tail pulse, 300 nM [Ca2+]i; for P o: control 0.09 ± 0.02; for single channel current i: control 0.22 ± 0.01
T1 construct: expressed in transfected cells; host or cells: HEK-293T
T1 sequence (Q8BHY3 1-960): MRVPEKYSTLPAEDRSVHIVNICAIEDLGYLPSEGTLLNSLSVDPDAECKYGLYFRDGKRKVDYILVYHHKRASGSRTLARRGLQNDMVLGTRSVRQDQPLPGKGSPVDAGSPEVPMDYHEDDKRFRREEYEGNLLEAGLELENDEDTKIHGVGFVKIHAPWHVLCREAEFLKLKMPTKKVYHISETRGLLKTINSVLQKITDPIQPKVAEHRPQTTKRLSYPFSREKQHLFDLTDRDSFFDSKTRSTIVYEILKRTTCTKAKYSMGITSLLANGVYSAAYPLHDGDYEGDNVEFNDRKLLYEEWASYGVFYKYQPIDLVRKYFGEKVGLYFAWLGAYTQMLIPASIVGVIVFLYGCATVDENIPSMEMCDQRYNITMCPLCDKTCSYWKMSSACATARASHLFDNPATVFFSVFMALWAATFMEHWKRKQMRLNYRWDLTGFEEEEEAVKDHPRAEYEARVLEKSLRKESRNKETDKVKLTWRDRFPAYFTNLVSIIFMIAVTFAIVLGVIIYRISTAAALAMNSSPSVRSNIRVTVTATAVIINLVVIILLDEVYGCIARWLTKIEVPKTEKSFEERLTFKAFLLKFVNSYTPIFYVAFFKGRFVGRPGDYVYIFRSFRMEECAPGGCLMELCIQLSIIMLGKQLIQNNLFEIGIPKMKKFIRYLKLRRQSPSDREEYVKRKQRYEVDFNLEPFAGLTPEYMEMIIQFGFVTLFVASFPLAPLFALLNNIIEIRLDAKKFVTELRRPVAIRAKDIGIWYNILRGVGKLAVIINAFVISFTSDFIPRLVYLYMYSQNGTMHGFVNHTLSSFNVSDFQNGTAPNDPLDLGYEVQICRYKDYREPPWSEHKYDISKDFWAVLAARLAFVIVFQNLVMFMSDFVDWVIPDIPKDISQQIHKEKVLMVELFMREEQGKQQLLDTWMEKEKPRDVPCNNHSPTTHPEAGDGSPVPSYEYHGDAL
Procedure: For non‐stationary noise analysis (Heinemann and Conti, 1992; Tammaro and Ashcroft, 2007), 80–200 identical pulses to a test potential of −70 mV (filtered at 10 kHz and sampled at 50 kHz) were applied, and the mean response, I, was calculated. The variance, σ ^2, was computed from the average squared difference of consecutive traces. Background variance and current at 0 mV were subtracted, and the variance–mean plot was fit by (4) σ^2=iI−I^2/N,
with the single channel current, i, and the number of channels, N, as free parameters.
Non‐stationary noise analysis was performed in the presence of 300 nM [Ca^2+]i during a tail pulse to −70 mV (Figure 8). In the absence of A9C, the i of TMEM16A was 0.22 ± 0.01 pA (n = 9). In the presence of 100 and 1000 μM [A9C]ext, i was 0.22 ± 0.01 pA (n = 9) and 0.23 ± 0.02 pA (n = 9) respectively. […] In the absence of A9C, the P o of TMEM16A was 0.09 ± 0.02 (n = 9) while in the presence of 100 and 1000 μM [A9C]ext, the P o was 0.41 ± 0.06 (n = 9) and 0.62 ± 0.06 (n = 9) respectively. Thus, extracellular A9C increased TMEM16A channel P o at a fixed V m and [Ca^2+]i.

[1] = test system: non‐transfected HEK‐293T cells; assay: Whole-cell endogenous currents in non-transfected cells with extracellular A9C; type: cell-based; settings: +100 mV, 3000 μM [A9C]ext; without A9C 3.6 ± 0.8
Procedure: Current versus V m relationships were constructed by measuring currents in response to 1 s V m steps (test pulses) from −100 to +100 mV in 40 mV increments (unless stated otherwise) after a 1 s V m step to +70 mV (pre‐pulse). Pulses were elicited every 2 s from a holding V m of 0 mV. Steady‐state currents were measured at the end of the test pulses. As detailed in the Results, in the presence of 300 nM [Ca^2+]i and extracellular A9C, the test‐pulse currents reached a peak within the first ~50 ms of the test pulse. These peak currents were also measured and plotted against the V m of the test pulse. Current density was obtained by dividing the current amplitude for the cell capacitance.
To test the possibility that A9C activated endogenous currents in HEK‐293T cells, the effect of [A9C]ext (3000 μM) on non‐transfected cells was assessed. No significant increase in current was observed relative to the small endogenous currents measured in non‐transfected cells in the absence of [A9C]ext (Figure 1A). For example, at +100 mV, the current recorded from non‐transfected HEK‐293T cells in the absence and presence of 3000 μM [A9C]ext was 3.6 ± 0.8 pA∙pF^−1 (n = 6) and 3.7 ± 0.7 pA∙pF^−1 (n = 6) respectively.

P o (Mouse TMEM16A; 100 μM [A9C]ext): 0.41 ± 0.06
single channel current i (Mouse TMEM16A; 100 μM [A9C]ext): 0.22 ± 0.01 pA
P o (Mouse TMEM16A; 1000 μM [A9C]ext): 0.62 ± 0.06
single channel current i (Mouse TMEM16A; 1000 μM [A9C]ext): 0.23 ± 0.02 pA
Compound: O=C(O)c1c2ccccc2cc2ccccc12 [A9C, Anthracene‐9‐carboxylic acid]
current density in non-transfected HEK-293T cells [1]: 3.7 ± 0.7 pA∙pF^−1
